Laboratory results as given in patent US20240116946A1 (Gilead Sciences, Inc., priority 2022, published 2024).
Where two headings read alike, the source gives them in different places.

What was measured:
SARS-CoV-2-NLuc = experiment: microbe, parasite or virus in culture; type: cell-based, SARS Coronavirus 2
[1] = molecular target: recombinant SARS-CoV-2 Main protease (Mpro) (Severe acute respiratory syndrome coronavirus 2 (2019-nCoV) (SARS-CoV-2), UniProt P0DTD1); experiment: Cov Mpro Biochemical IC50 Assay
[2] = Severe acute respiratory syndrome coronavirus, 48 h, read-out: MPro EC50
[3] = recombinant SARS-CoV-2 Mpro 7.5 nM, fluorogenic peptide substrate 40 μM, read-out: MPro IC50
[4] = recombinant SARS-CoV-2 Mpro, fluorogenic peptide substrate, read-out: MPro IC50
[5] = Severe acute respiratory syndrome coronavirus, 48 h; read-out: MPro EC50

Compound	EC50 (SARS-CoV-2-NLuc; [2])	IC50 [1, 3]	IC50 [1, 4]	further results
Cc1nc2cncc(-n3c(=O)c4sc(-c5cc(F)c(F)cc5Cl)cc4n(CCC#N)c3=O)c2n1C [Example 860]	212 nM	39.4 nM	–	–
Cn1ncc2cncc(-n3c(=O)c4sc(-c5ccc(F)cc5Cl)cc4n(CCC#N)c3=O)c21 (single isomer, unassigned) [Example 956, 3-(6-(2-chloro-4-fluorophenyl)-3-(1-methyl-1H-pyrazolo[4,3-c]pyridin-7-yl)-2,4-dioxo-3,4-dihydrothieno[3,2-d]pyrimidin-1(2H)-yl)propanenitrile]	–	> 1000 nM	–	EC50 (SARS-CoV-2-NLuc; read-out: MPro EC50): 699 nM
O=c1[nH]c2cc(-c3ccccc3-c3ccccc3Cl)ccc2c(=O)n1-c1cncc2ccccc12 [Example 74, 7-(2′-chloro-[1,1′-biphenyl]-2-yl)-3-(isoquinolin-4-yl)quinazoline-2,4(1H,3H)-dione]	711 nM	–	470 nM	–
Cn1cnc(COc2cccc(Cl)c2-c2ccc3c(=O)n(-c4cncc5ccccc45)c(=O)[nH]c3c2)n1 [Example 88]	630 nM	–	233 nM	–
CNC(=O)[C@H]1C[C@@H]1c1cncc(-n2c(=O)[nH]c3cc(-c4ccccc4Cl)sc3c2=O)c1 [Example 383]	286 nM	–	5.23 nM	–
CCc1cncc(-n2c(=O)[nH]c3cc(-c4ccccc4Cl)sc3c2=O)c1 [Example 217]	96.2 nM	–	66.6 nM	–
Cn1cc2cc(-c3cccc(Cl)c3-c3ccc4c(=O)n(-c5cncc6ccccc56)c(=O)[nH]c4c3)ccc2n1 [Example 247]	30.4 nM	–	63 nM	–
COc1cc(-c2cc3[nH]c(=O)n(-c4cncc5cnn(C)c45)c(=O)c3s2)c(Cl)cc1F (single isomer, unassigned) [Example 639, 6-(2-chloro-4-fluoro-5-methoxy-phenyl)-3-(1-methylpyrazolo[4,3-c]pyridin-7-yl)-1H-thieno[3,2-d]pyrimidine-2,4-dione]	–	114 nM	–	EC50 (SARS-CoV-2-NLuc; read-out: MPro EC50): 173 nM
Cc1cc(-c2cccc(Cl)c2-c2ccc3c(=O)n(-c4cncc5ccccc45)c(=O)[nH]c3c2)cn2ncnc12 [Example 102]	16.1 nM	–	15.7 nM	–
COc1cc(-c2cc3c(s2)c(=O)n(-c2cncc(C#CC(C)(C)S(C)(=O)=O)c2)c(=O)n3CCC#N)c(Cl)cc1F [Example 1039]	57.1 nM	11.7 nM	–	–
N#CCCn1c(=O)n(-c2cncc3ccc(C#N)cc23)c(=O)c2sc(-c3ccc(F)cc3Cl)cc21 [Example 1063]	39.9 nM	17.9 nM	–	–
CN1C(=O)COc2ccc(-c3cccc(Cl)c3-c3ccc4c(=O)n(-c5cncc6ccccc56)c(=O)[nH]c4c3)cc21 [Example 196]	15.6 nM	–	17.4 nM	–
COc1ccc(Cl)c(-c2cc3[nH]c(=O)n(-c4cncc5scc(C)c45)c(=O)c3s2)c1 (single isomer, unassigned) [Example 1052, 6-(2-chloro-5-methoxyphenyl)-3-(3-methylthieno[2,3-c]pyridin-4-yl)thieno[3,2-d]pyrimidine-2,4(1H,3H)-dione]	–	3.67 nM	–	EC50 (SARS-CoV-2-NLuc; read-out: MPro EC50): 2.66 nM
COc1ccc(Cl)c(-c2cc3[nH]c(=O)n(-c4cncc5sc(C(C)(C)O)cc45)c(=O)c3s2)c1 [Example 515]	17.5 nM	8.51 nM	–	–
Cc1nn(C2CCNCC2)cc1-c1cccc(Cl)c1-c1ccc2c(=O)n(-c3cncc4ccccc34)c(=O)[nH]c2c1 [Example 472, 7-[2-chloro-6-[3-methyl-1-(4-piperidyl)pyrazol-4-yl]phenyl]-3-(4-isoquinolyl)-1H-quinazoline-2,4-dione]	188 nM	5.11 nM	–	–
COc1cc(-c2cc3c(s2)c(=O)n(-c2cncc4cnn(C)c24)c(=O)n3CCC#N)c(C#N)cc1F [Example 999, 2-(1-(2-cyanoethyl)-3-(1-methyl-1H-pyrazolo[4,3-c]pyridin-7-yl)-2,4-dioxo-1,2,3,4-tetrahydrothieno[3,2-d]pyrimidin-6-yl)-5-fluoro-4-methoxybenzonitrile]	–	7.15 nM	–	EC50 (SARS-CoV-2-NLuc; [5]): 15.7 nM
COc1cc(-c2cc3c(s2)c(=O)n(-c2cncc4cnn(C)c24)c(=O)n3CCc2nnn[nH]2)c(Cl)cc1F [Example 1002, 6-(2-chloro-4-fluoro-5-methoxy-phenyl)-3-(1-methylpyrazolo[4,3-c]pyridin-7-yl)-1-[2-(1H-tetrazol-5-yl)ethyl]thieno[3,2-d]pyrimidine-2,4-dione]	–	33.8 nM	–	EC50 (SARS-CoV-2-NLuc; read-out: MPro EC50): 110 nM
Cn1nc(-c2cccc(Cl)c2-c2ccc3c(=O)n(-c4cncc5ccccc45)c(=O)[nH]c3c2)c2ccccc21 [Example 263]	38.1 nM	–	88.5 nM	–
COc1cc(-c2cc3c(s2)c(=O)n(-c2cncc(C)c2Cl)c(=O)n3CCC#N)c(Cl)cc1F [Example 944]	8.22 nM	6.67 nM	–	–
CC(C)(C)c1cncc(-n2c(=O)[nH]c3cc(-c4ccccc4Cl)ccc3c2=O)c1 [Example 579]	–	> 50000 nM	–	EC50 (SARS-CoV-2-NLuc; [5]): 42600 nM
COc1ccc(Cl)c(-c2cc3[nH]c(=O)n(-c4cncc5ccc(CO)cc45)c(=O)c3s2)c1 [Example 552, 6-(2-chloro-5-methoxyphenyl)-3-(6-(hydroxymethyl)isoquinolin-4-yl)thieno[3,2-d]pyrimidine-2,4(1H,3H)-dione]	12.4 nM	7.13 nM	–	–
COc1cccc(C#N)c1-c1ccc2c(=O)n(-c3cncc4ccccc34)c(=O)[nH]c2c1 [Example 71]	141 nM	–	76.4 nM	–
O=c1[nH]c2cc(-c3cccnc3)sc2c(=O)n1-c1cncc2ccccc12 [Example 5]	1790 nM	–	342 nM	–
COc1cc(-c2cc3c(s2)c(=O)n(-c2cncc(C#CC(C)(C)O)c2)c(=O)n3CCC#N)c(Cl)cc1F [Example 1038, 3-(6-(2-chloro-4-fluoro-5-methoxyphenyl)-3-(5-(3-hydroxy-3-methylbut-1-yn-1-yl)pyridin-3-yl)-2,4-dioxo-3,4-dihydrothieno[3,2-d]pyrimidin-1(2H)-yl)propanenitrile]	–	1.28 nM	–	EC50 (SARS-CoV-2-NLuc; [5]): 5.69 nM

Compound	EC50 (SARS-CoV-2-NLuc; [2])	IC50 [1, 3]	IC50 [1, 4]	further results
CC(C)(O)CNc1ccc2cncc(-n3c(=O)[nH]c4cc(-c5ccccc5Cl)sc4c3=O)c2c1 [Example 389]	131 nM	–	26.7 nM	–
COc1cc(-c2cc3c(s2)c(=O)n(-c2cncc4ccccc24)c(=O)n3[C@H]2C[C@H](C#N)C2)c(Cl)cc1F [Example 695]	45.9 nM	16.2 nM	–	–
O=c1[nH]c2cc(-c3ccccc3Cl)sc2c(=O)n1-c1cncc2ccc(N3CC(F)(F)OC(F)(F)C3)cc12 [Example 228]	73.1 nM	–	294 nM	–
O=c1[nH]c2cc(-c3ccccc3Cl)ccc2c(=O)n1-c1cnccc1C(F)(F)F [Example 125]	17500 nM	–	22500 nM	–
COc1cc(-c2cc3c(s2)c(=O)n(-c2cncc4nnn(C5CC5)c24)c(=O)n3CC2(C#N)CC2)c(Cl)cc1F [Example 692]	2.44 nM	4.35 nM	–	–
Cc1ccccc1-c1cnc2c(=O)n(-c3cncc4ccccc34)c(=O)[nH]c2c1 [Example 46]	–	–	216 nM	EC50 (SARS-CoV-2-NLuc; [5]): 989 nM
N#CCCn1c(=O)n(-c2cccnc2)c(=O)c2sc(-c3cc(F)c(F)cc3Cl)cc21 [Example 803]	–	25.9 nM	–	EC50 (SARS-CoV-2-NLuc; [5]): 91.5 nM
COc1cc(-c2ccc3c(=O)n(-c4cncc5ccccc45)c(=O)[nH]c3c2)c(C#N)cc1F [Example 319]	27.9 nM	–	10.7 nM	–
Cc1c2c(-n3c(=O)c4sc(-c5ccccc5C#N)cc4n(CCC#N)c3=O)cncc2nn1C [Example 896]	–	59.2 nM	–	EC50 (SARS-CoV-2-NLuc; [5]): 479 nM
COc1ccc(Cl)c(-c2ccc3c(=O)n(-c4cncc5ccc(N6CC7(CCOC7)C6)cc45)c(=O)[nH]c3c2)c1 [Example 410]	–	12.8 nM	–	EC50 (SARS-CoV-2-NLuc; [5]): 58.6 nM
COc1ccc(Cl)c(-c2cc3[nH]c(=O)n(-c4cncc5ccc(N6CC(F)(F)OC(F)(F)C6)cc45)c(=O)c3s2)c1 [Example 229]	28.9 nM	–	22.5 nM	–
CN1C(=O)COc2cc(-c3cccc(Cl)c3-c3ccc4c(=O)n(-c5cncc6ccccc56)c(=O)[nH]c4c3)ccc21 [Example 197]	8.58 nM	–	13.9 nM	–
Cn1cnc2cncc(-n3c(=O)c4sc(-c5cc(F)c(F)cc5Cl)cc4n(CCC#N)c3=O)c21 [Example 852]	–	27.4 nM	–	EC50 (SARS-CoV-2-NLuc; [5]): 104 nM
COc1ccc(C#N)c(-c2ccc3c(=O)n(-c4cncc5ccc(N6CCOCC6)cc45)c(=O)[nH]c3c2)c1 [Example 431]	71.3 nM	10.5 nM	–	–
O=c1[nH]c2cc(-c3ccccc3OCc3ccccc3)ccc2c(=O)n1-c1cncc2ccccc12 [Example 57]	1520 nM	–	5450 nM	–
Cn1cnc2cncc(-n3c(=O)c4sc(-c5ccc(F)cc5Cl)cc4n(CCC#N)c3=O)c21 [Example 851]	–	22.3 nM	–	EC50 (SARS-CoV-2-NLuc; [5]): 75.3 nM
Cc1ncccc1-c1ccc2c(=O)n(-c3cncc4ccccc34)c(=O)[nH]c2c1 [Example 63]	8440 nM	–	5850 nM	–
CC(=O)N1CCN(c2ccc3cncc(-n4c(=O)[nH]c5cc(-c6ccccc6Cl)sc5c4=O)c3c2)CC1 [Example 387]	30.3 nM	–	< 2.54 nM	–
COc1cc(-c2cc3[nH]c(=O)n(-c4cnccc4C)c(=O)c3s2)c(Cl)cc1F [Example 713]	–	–	–	EC50 (SARS-CoV-2-NLuc; [5]): 15 nM; IC50 ([1]; MPro IC50, recombinant SARS-CoV-2 Mpro 7.5 nM, fluorogenic peptide substrate 40 μM): 9.18 nM
Cc1cc(-c2cc3c(s2)c(=O)n(-c2cncc4cnn(C)c24)c(=O)n3CCC#N)c(C#N)cc1F [Example 779]	67.3 nM	24.1 nM	–	–
Cc1cc(-c2cccc(Cl)c2-c2ccc3c(=O)n(-c4cncc5ccccc45)c(=O)[nH]c3c2)cnn1 [Example 234]	21.2 nM	–	< 5.67 nM	–
COc1cc(-c2cc3[nH]c(=O)n(-c4cncc5cccc(F)c45)c(=O)c3s2)c(C#N)cc1F [Example 762]	20.3 nM	7.21 nM	–	–
Cc1nc2cc(-c3cccc(Cl)c3-c3ccc4c(=O)n(-c5cncc6ccccc56)c(=O)[nH]c4c3)ccc2o1 [Example 359]	91.4 nM	–	107 nM	–
